Measurements as given in US20080045596A1, “Ep2 Receptor Agonists” (priority 2003, published 2008).
Read-outs that look alike come from different tables or passages of the source.

How the values were obtained:
human myometrium = assay: Electrical field stimulation (EFS) induced contractions of human myometrial strips
Description: The following describes an in vitro functional assay, using human myometrial smooth muscle, to determine the affinity of the test compounds at the EP2 receptor in human tissues.
Sections of human myometrium were prepared from samples of surgically removed uterus longitudinal myometrial muscle strips (2 mm wide by 10 mm long) were then cut and suspended between stainless steel hooks in organ chambers containing oxygenated (95% O2/5% CO2) Krebs solution at 37° C. The composition of the Krebs solution was as follows: NaCl (118.2 mM), KCl (4.69 mM), MgSO4.7H2O (1.18 mM), KH2PO4 (1.19 mM), glucose (11.1 mM), NaHCO3 (25.0 mM), CaCl2.6H2O (2.5 mM), indomethacin 3×10^−6M.
Tissues were placed under a tension equivalent to 25 mN and left overnight at room temperature. The following day the tissues were maintained at 37° C., washed and placed under a tension of 15 mN then allowed to equilibrate for a period of at least 30 minutes. Responses were recorded using isometric transducers coupled to an Apple Macintosh computer via a MacLab interface. After 60 minutes, the muscle sections of the human myometrium were stimulated electrically (15 ms pulse width, for 10 s every 100 s at 15V and 0.5-40 Hz) using parallel platinum wire electrodes and a Multistim D330 pulse stimulator. Upon electrical stimulation, the strips of human myometrial smooth muscle responded with a rapid contraction. Once the response to electrical stimulation had stabilised (stimulated responses differed by no more than 10%), the strips were exposed to increasing concentrations of test compounds (1×10^−7 to 1×10^−4M, incubated for at least 15 minutes at each concentration). At the end of the experiment, application of sodium nitroprusside (SNP, a nitric oxide donor that causes smooth muscle relaxation) (1×10^−4M) was used to produce a standard relaxatory response. To determine the affinity of the compounds, the concentration of test compound required to produce half-maximal effects (EC50) was calculated, as was the maximum response (calculated as a percentage of the standard response produced with SNP).

[1] = system: interferon gamma release by lymphocytes; assay: Lymphocyte assay: interferon gamma release; assay type: cell-based, human; conditions: FIG. 11, two donors
Text: Lymphocytes are mononuclear leukocytes, which participate in specific immune responses to foreign antigens and in the manifestation of auto-immune diseases. T lymphocytes produce IL-2, a key factor for lymphocyte activation and proliferation, in response to antigen stimulation via the CD3-T cell receptor complex and the pathway involved in this response is the NF-AT. […] A lymphocyte assay was designed to model this response and to determine the effect of test compound on IL-2 production by anti-CD3-stimulated T cells isolated from peripheral blood. This assay uses a sub-optimal dose of an anti-CD3 monoclonal antibody (OKT3, 25 ng/ml) immobilised to a 96-well plate to stimulate a T cell response. The level of IL-2 released into the cell culture supernatants was quantified using a standard sandwich ELISA. Similarly, other cytokines such as TNFα and IFN-γ can also be measured in the same assay. […]
Lymphocytes were then seeded to a 96-well plate pre-coated with anti-CD3 monoclonal antibody (OKT3) at 25 ng/ml and immediately, the test compounds (Peak 1, mixture 1 acid; Peak 1, mixture 2 acid; AH-13205 racemate; PGE2) in appropriate dilutions were added to corresponding wells according to the experimental design. […] The levels of IFN-γ was assessed by using the ProteoPlex 16 well human cytokine array assay kit according to the manufacturer's instruction.

human EP2 receptor [2] = target: T1, human EP2 receptor (Homo sapiens, UniProt P43116); assay: Radioligand ([3H]PGE2) competition displacement binding, human EP2 receptor membranes; conditions: for pKi EP2: human EP2, [3H]PGE2 displacement, Cheng-Prusoff, mean of 4 experiments
T1 construct: expressed in transfected cells; host or cells: HEK cells (HEK-EP2)
T1 sequence (P43116 whole entry): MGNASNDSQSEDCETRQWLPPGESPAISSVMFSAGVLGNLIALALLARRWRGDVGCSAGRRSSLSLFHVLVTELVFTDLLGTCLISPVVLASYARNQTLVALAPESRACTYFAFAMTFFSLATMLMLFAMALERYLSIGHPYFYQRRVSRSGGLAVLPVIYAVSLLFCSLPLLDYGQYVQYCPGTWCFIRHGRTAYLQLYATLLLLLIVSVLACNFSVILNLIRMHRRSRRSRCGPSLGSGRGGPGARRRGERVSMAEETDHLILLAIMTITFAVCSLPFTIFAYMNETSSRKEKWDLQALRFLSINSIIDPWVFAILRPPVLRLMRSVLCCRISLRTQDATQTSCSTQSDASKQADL
Description: (§1) Membranes were prepared from cells stably transfected with human EP receptor cDNA. In brief, cells were cultured to confluency, scraped from culture flasks, and centrifuged (800 g, 8 minutes, 4° C.). Cells were twice washed in ice cold homogenisation buffer containing 10 mM Tris-HCl, 1 mM EDTA.2Na, 250 mM sucrose, 1 mM PMSF, 0.3 mM indomethacin, pH 7.4, homogenised and re-centrifuged as before. The supernatant was stored on ice and pellets re-homogenised and re-spun. Supernatants were pooled and centrifuged at 40000 g, 10 minutes, 4° C. Resultant membrane pellets were stored at −80° C. until use.
(§2) For assay, membranes expressing human EP4, EP3, EP2 or EP1 receptors were incubated in Millipore (MHVBN45) plates containing assay buffer, radiolabelled [^3H]PGE2 and 0.1 to 10 000 nM concentrations of compounds. Incubations were performed at suitable temperatures and for suitable times to allow equilibrium to be reached. Non-specific binding was determined in the presence of 10 uM PGE2. Bound and free radiolabel was separated by vacuum manifold filtration using appropriate wash buffers, and bound radiolabel was determined by scintillation counting. Constituents of each of the buffers are included in table 4 below.
(§3) The affinity or pKi of each compound for each receptor was calculated from the concentration causing 50% radioligand displacement (IC50) using the Cheng-Prusoff equation: […]
(§4) This approach follows that set out in Kenakin, T. P., Pharmacologic analysis of drug receptor interaction. Raven Press, New York, 2nd edition.

human EP3 receptor = target: T2, human EP3 receptor (Homo sapiens, UniProt P43115); assay: Radioligand ([3H]PGE2) competition displacement binding, human EP3 receptor membranes; conditions: human EP3, [3H]PGE2 displacement
T2 construct: expressed in transfected cells
T2 sequence (P43115 1-390): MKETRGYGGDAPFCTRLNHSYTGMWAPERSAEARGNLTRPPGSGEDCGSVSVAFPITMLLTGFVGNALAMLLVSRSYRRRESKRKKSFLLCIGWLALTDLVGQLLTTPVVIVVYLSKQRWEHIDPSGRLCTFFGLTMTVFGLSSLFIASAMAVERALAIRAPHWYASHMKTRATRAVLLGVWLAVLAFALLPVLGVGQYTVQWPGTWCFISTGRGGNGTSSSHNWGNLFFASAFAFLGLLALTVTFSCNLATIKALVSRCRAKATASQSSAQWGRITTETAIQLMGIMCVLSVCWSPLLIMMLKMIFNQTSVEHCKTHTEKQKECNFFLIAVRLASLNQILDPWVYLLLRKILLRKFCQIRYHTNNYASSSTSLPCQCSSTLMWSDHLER
Description: as §1, §2, §3, §4

human EP4 receptor = target: T3, human EP4 receptor (Homo sapiens, UniProt P35408); assay: Radioligand ([3H]PGE2) competition displacement binding, human EP4 receptor membranes; conditions: human EP4, [3H]PGE2 displacement
T3 construct: expressed in transfected cells
T3 sequence (P35408 whole entry): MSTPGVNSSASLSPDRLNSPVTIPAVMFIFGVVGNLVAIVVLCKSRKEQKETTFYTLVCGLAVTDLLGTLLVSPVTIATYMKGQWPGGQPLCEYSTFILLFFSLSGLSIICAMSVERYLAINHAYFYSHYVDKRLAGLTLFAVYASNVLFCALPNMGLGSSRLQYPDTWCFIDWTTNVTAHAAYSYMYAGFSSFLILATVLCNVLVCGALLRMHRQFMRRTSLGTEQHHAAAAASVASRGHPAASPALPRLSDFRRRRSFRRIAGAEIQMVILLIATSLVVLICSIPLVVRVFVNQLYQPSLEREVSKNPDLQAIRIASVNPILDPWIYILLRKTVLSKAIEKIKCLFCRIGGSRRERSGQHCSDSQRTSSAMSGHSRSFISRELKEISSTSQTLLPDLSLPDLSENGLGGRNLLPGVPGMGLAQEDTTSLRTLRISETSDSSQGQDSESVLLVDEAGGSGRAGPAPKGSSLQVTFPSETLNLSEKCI
Description: as §1, §2, §3, §4

human EP2 receptor [3] = target: T1, human EP2 receptor; assay: cAMP production in HEK cells stably expressing the human EP2 receptor; assay type: cell-based; conditions: 15 min stimulation, 4 experiments, logarithm of EC50
Description: The following describes an in vitro assay to determine the effect of compounds on cyclase production, that is, to determine their functional efficacy at the EP2 receptor.
HEK cells stably expressing the human EP2 receptor were used for these assays. HEK-EP2 cells were cultured in 96-well, poly-L-lysine coated plates at a density of 50,000 cells/well, and grown to confluence in humidified […]/5% CO2 at 37° C. Culture medium was DMEM supplemented with 10% foetal bovine serum, 100 U/ml penicillin, […] streptomycin, 2.5 μg/ml fungizone, 2 mM glutamine, 250 μg/ml geneticin and 200 μg/ml zeocin.
On reaching confluence, culture media was rinsed off using DMEM with no additions, before 175 μl assay buffer (DMEM containing 1 mM 3-isobutyl-1-methylxanthine and 3 μM indomethacin) was added to each well. This was allowed to incubate for 1 hr before the cells were stimulated with the test compounds (in triplicate) at final concentrations of 10^−9M to 10^−5M for 15 minutes. The assay was terminated by the addition of 25 μl 1M hydrochloric acid. Plates were then frozen for a minimum of 12 hours or until required for radioligand displacement assay.
Plates were thawed quickly at 37° C., and neutralised with 25 μl 1M sodium hydroxide. 30 μl of supernatant was transferred to 96-well Millipore (MAFNOB) plates coated with 0.1% Polyethylenimine. These supernatants were diluted by addition of 90 μl cAMP assay buffer (50 mM Tris, 5 mM EDTA, pH 7.0). A cAMP standard curve (10^−11M to 10^−5M) was constructed. 15 μl of 3′:5′-cAMP-dependent protein kinase (final concentration 8 μg/well), and 15 μl [^3H]-cAMP (final concentration 2 nM/well) were added to each well.
Plates were incubated on ice for 2 hours, before bound and free radiolabel were separated by vacuum filtration harvesting on the Millipore manifold, using ice cold water as the termination buffer. […]
Radioactivity was determined using the Microbeta Trilux scintillation counter. cAMP accumulation was determined from the standard curve, and the values plotted as pmoles cAMP/well.

[4] = system: TNFα production by LPS-stimulated monocytes; assay: Monocyte assay: LPS-induced TNFα secretion; assay type: cell-based, human; conditions: Table 11/FIG. 14, mean of three donors, LPS 100 ng/ml, 24 h
Text: Monocytes are peripheral mononuclear phagocytes that participate in inflammatory responses. TNFα production by monocytes plays an important role in inflammatory responses and can cause considerable tissue damage if the level remained unchecked. Inhibition of TNFα secretion by activated monocytes may provide an attractive therapy for the treatment of inflammatory conditions.
A 96 well in vitro assay was established to determine the effects of test compounds on LPS-induced TNFα secretion by human peripheral blood monocytes. The level of TNFα in assay supernatants was quantified using a standard sandwich ELISA.
Human peripheral blood mononuclear cells from healthy volunteers were isolated from whole blood by Ficoll-Hypaque density centrifugation and adherence to plastic. The non-adherent lymphocyte fraction was used to set up the lymphocyte assay and the adherent monocytes were then recovered by scraping and subsequently used in the monocyte assay.
For the monocyte assay, the cells were plated onto 96-well plates and pre-treated for 1 hour at 37° C./5% CO2 with the test compound (Peak 1, mixture 1 acid; Peak 1, mixture 2 acid; AH-13205 racemate), followed by the addition of LPS (100 ng/ml) to initiate the reaction. The plate was incubated for 24 hours and supernatants were recovered for the measurement of TNFα production by ELISA.

| Compound | effect on EFS-evoked contractions (words) (human myometrium) | pKi EP2 (human EP2 receptor [2]) | pKi EP3 (human EP3 receptor) | pKi EP4 (human EP4 receptor) | Mean Log (EC50), cAMP production (human EP2 receptor [3]) | further results |
| --- | --- | --- | --- | --- | --- | --- |
| CCCCCC(O)c1ccc(C2CCC(=O)C2CCCCCCC(=O)O)cc1 (racemic) [AH13205, (±)-trans-2-[4-(1-hydroxyhexyl)phenyl]-5-oxo-cyclopentaneheptanoic acid, reference compound] | concentration-dependent inhibition |  |  |  |  | effect on EFS-evoked contractions (words) (human myometrium; listed as AH-13205): inhibit electrically-induced contractions |
| CCCCC[C@H](O)c1ccc([C@H]2CCC(=O)[C@@H]2CCCCCCC(=O)O)cc1 (single isomer, unassigned) [Peak 1, Mixture 1 acid] | concentration-dependent inhibition |  |  |  |  | effect on interferon gamma release [1]: concentration-dependently inhibit interferon gamma release |
| CCCCC[C@@H](O)c1ccc([C@H]2CCC(=O)[C@@H]2CCCCCCC(=O)O)cc1 (single isomer, unassigned; peak 1) [Peak 1, Mixture 2 acid] | concentration-dependent inhibition | 6.9 | 4.8 | 5.1 | −7.25 | selectivity for EP2 among the stereoisomers (human EP2 receptor [2]; from Table 5 pKi values, EP2 versus other EP receptors): most selective; maximum inhibition of EFS-induced contractions (human myometrium): 57±2%; pEC50, inhibition of EFS-evoked response (human myometrium; 1×10^-7 to 1×10^-4 M): 5.3±0.1; Mean Log (EC50), inhibition of TNFα production by LPS-stimulated monocytes ([4]; logarithm of EC50): −5.172; EC50 ([4]; read-out: Mean EC50, inhibition of TNFα production by LPS-stimulated monocytes): 6.73 µM |
| CCCCC[C@H](O)c1ccc([C@@H]2CCC(=O)[C@H]2CCCCCCC(=O)O)cc1 (single isomer, unassigned; peak 2) [Peak 2, Mixture 1 acid] |  | 5.8 | 4.8 | 4.5 | −6.49 |  |
| CCCCC[C@@H](O)c1ccc([C@@H]2CCC(=O)[C@H]2CCCCCCC(=O)O)cc1 (single isomer, unassigned; peak 2) [Peak 2, Mixture 2 acid] |  | 6.3 | 4.7 | 4.8 | −6.39 |  |
| CC(C)(C)NCC(O)c1cc(O)cc(O)c1 (centres unmarked) [terbutaline, reference compound] | no significant inhibitory effect |  |  |  |  |  |
